Data from ChEMBL document CHEMBL5303573, “Mapping human microbiome drug metabolism by gut bacteria and their genes” (Nature, 2019).

How the values were obtained:
[1] = The drug is tested on Collinsella aerofaciens strain: ATCC25986 for biotransformation. The drug concentrations were measured before and after a 12-h incubation by liquid-chromatography-coupled mass spectrometry (LC–MS); conditions: 2 µM
[2] = The drug is tested on Clostridium asparagiforme strain: DSM15981 for biotransformation. The drug concentrations were measured before and after a 12-h incubation by liquid-chromatography-coupled mass spectrometry (LC–MS); type: ADME; set-up: dose 2 uM, timepoint 0 vs 12 hours; conditions: enterocloster asparagiformis, 2 µM
[3] = The drug is tested on Parabacteroides merdae strain: ATCC43184 for biotransformation. The drug concentrations were measured before and after a 12-h incubation by liquid-chromatography-coupled mass spectrometry (LC–MS); conditions: 2 µM
[4] = The drug is tested on Coprococcus comes strain: ATCC27758 for biotransformation. The drug concentrations were measured before and after a 12-h incubation by liquid-chromatography-coupled mass spectrometry (LC–MS); type: ADME; set-up: dose 2 uM, timepoint 0 vs 12 hours; conditions: 2 µM
[5] = limosilactobacillus reuteri cf48-3a, 12 h, 2 µM
Description: The drug is tested on Lactobacillus reuteri CF48-3A strain: BEI HM-102 for biotransformation. The drug concentrations were measured before and after a 12-h incubation by liquid-chromatography-coupled mass spectrometry (LC–MS)

[6] = The drug is tested on Bacteroides finegoldii strain: DSM17565 for biotransformation. The drug concentrations were measured before and after a 12-h incubation by liquid-chromatography-coupled mass spectrometry (LC–MS); conditions: 2 µM
[7] = The drug is tested on Bifidobacterium ruminantium strain: fecal isolate for biotransformation. The drug concentrations were measured before and after a 12-h incubation by liquid-chromatography-coupled mass spectrometry (LC–MS); conditions: 2 µM
[8] = The drug is tested on Bacteroides caccae strain: ATCC43185 for biotransformation. The drug concentrations were measured before and after a 12-h incubation by liquid-chromatography-coupled mass spectrometry (LC–MS); conditions: 2 µM
[9] = The drug is tested on Enterococcus faecalis strain: V583 for biotransformation. The drug concentrations were measured before and after a 12-h incubation by liquid-chromatography-coupled mass spectrometry (LC–MS); conditions: 2 µM
[10] = bacteroides thetaiotaomicron, 12 h, 2 µM
Description: The drug is tested on Bacteroides thetaiotaomicron strain: 7330 for biotransformation. The drug concentrations were measured before and after a 12-h incubation by liquid-chromatography-coupled mass spectrometry (LC–MS)

[11] = The drug is tested on Bacteroides uniformis strain: ATCC8492 for biotransformation. The drug concentrations were measured before and after a 12-h incubation by liquid-chromatography-coupled mass spectrometry (LC–MS); conditions: 2 µM
[12] = The drug is tested on Anaerotruncus colihominis strain: DSM17241 for biotransformation. The drug concentrations were measured before and after a 12-h incubation by liquid-chromatography-coupled mass spectrometry (LC–MS); conditions: 2 µM
[13] = The drug is tested on Alistipes indistinctus strain: DSM22520 for biotransformation. The drug concentrations were measured before and after a 12-h incubation by liquid-chromatography-coupled mass spectrometry (LC–MS); conditions: 2 µM
[14] = The drug is tested on Bacteroides coprophilus strain: DSM18228 for biotransformation. The drug concentrations were measured before and after a 12-h incubation by liquid-chromatography-coupled mass spectrometry (LC–MS); conditions: 2 µM
[15] = The drug is tested on Dorea formicigenerans strain: ATCC27755 for biotransformation. The drug concentrations were measured before and after a 12-h incubation by liquid-chromatography-coupled mass spectrometry (LC–MS); conditions: 2 µM
[16] = The drug is tested on Ruminococcus torques strain: ATCC27756 for biotransformation. The drug concentrations were measured before and after a 12-h incubation by liquid-chromatography-coupled mass spectrometry (LC–MS); type: ADME; set-up: dose 2 uM, timepoint 0 vs 12 hours; conditions: 2 µM
[17] = The drug is tested on Bacteroides ovatus strain: ATCC8483 for biotransformation. The drug concentrations were measured before and after a 12-h incubation by liquid-chromatography-coupled mass spectrometry (LC–MS); conditions: 2 µM
[18] = The drug is tested on Clostridium sporogenes strain: ATCC15579 for biotransformation. The drug concentrations were measured before and after a 12-h incubation by liquid-chromatography-coupled mass spectrometry (LC–MS); conditions: 2 µM
[19] = The drug is tested on Odoribacter splanchnicus strain: fecal isolate for biotransformation. The drug concentrations were measured before and after a 12-h incubation by liquid-chromatography-coupled mass spectrometry (LC–MS); conditions: 2 µM
[20] = The drug is tested on Enterobacter cancerogenus strain: ATCC35316 for biotransformation. The drug concentrations were measured before and after a 12-h incubation by liquid-chromatography-coupled mass spectrometry (LC–MS); conditions: 2 µM

Structure (SMILES)	Bacterial Biotransformation [1]	Bacterial Biotransformation [2]	Bacterial Biotransformation [3]	Bacterial Biotransformation [4]	Bacterial Biotransformation [5]	Bacterial Biotransformation [6]	Bacterial Biotransformation [7]	Bacterial Biotransformation [8]	Bacterial Biotransformation [9]	Bacterial Biotransformation [10]	Bacterial Biotransformation [11]	Bacterial Biotransformation [12]	Bacterial Biotransformation [13]	Bacterial Biotransformation [14]	Bacterial Biotransformation [15]	Bacterial Biotransformation [16]	Bacterial Biotransformation [17]	Bacterial Biotransformation [18]	Bacterial Biotransformation [19]	Bacterial Biotransformation [20]
CN1CC(=O)N2[C@H](c3ccc4c(c3)OCO4)c3[nH]c4ccccc4c3C[C@@H]2C1=O	Compound NOT metabolized	Compound NOT metabolized	Compound NOT metabolized	Compound NOT metabolized	Compound NOT metabolized	Compound NOT metabolized	Compound NOT metabolized	Compound NOT metabolized	Compound NOT metabolized	Compound metabolized	Compound NOT metabolized	Compound NOT metabolized	Compound NOT metabolized	Compound NOT metabolized	Compound NOT metabolized	Compound NOT metabolized	Compound metabolized	–	–	–
N#Cc1ccc2c(c1)N(CCCN1CCC(O)CC1)c1ccccc1S2 [PERICIAZINE]	Compound NOT metabolized	Compound NOT metabolized	–	Compound NOT metabolized	–	Compound metabolized	–	Compound metabolized	Compound NOT metabolized	Compound metabolized	Compound NOT metabolized	Compound NOT metabolized	Compound metabolized	–	Compound NOT metabolized	Compound NOT metabolized	Compound NOT metabolized	Compound NOT metabolized	–	–
CS(=O)(=O)O.OC(CCN1CCCCC1)(c1ccccc1)c1ccccc1 [PRIDINOL METHANESULFONATE]	Compound NOT metabolized	Compound NOT metabolized	Compound NOT metabolized	Compound NOT metabolized	Compound NOT metabolized	Compound NOT metabolized	Compound NOT metabolized	Compound NOT metabolized	–	Compound NOT metabolized	–	Compound NOT metabolized	–	Compound NOT metabolized	Compound NOT metabolized	Compound NOT metabolized	Compound NOT metabolized	Compound NOT metabolized	Compound NOT metabolized	–
CC(C)c1nc(CN(C)C(=O)N[C@H](C(=O)N[C@@H](Cc2ccccc2)C[C@H](O)[C@H](Cc2ccccc2)NC(=O)OCc2cncs2)C(C)C)cs1 [RITONAVIR]	Compound NOT metabolized	Compound NOT metabolized	Compound NOT metabolized	–	Compound NOT metabolized	Compound NOT metabolized	Compound NOT metabolized	Compound NOT metabolized	Compound NOT metabolized	Compound NOT metabolized	Compound metabolized	Compound NOT metabolized	Compound NOT metabolized	Compound NOT metabolized	Compound NOT metabolized	Compound NOT metabolized	Compound NOT metabolized	Compound NOT metabolized	Compound metabolized	–
CN1C(C(=O)Nc2ccccn2)=C(O)c2sccc2S1(=O)=O [TENOXICAM]	Compound NOT metabolized	Compound NOT metabolized	Compound NOT metabolized	–	Compound NOT metabolized	–	Compound NOT metabolized	Compound NOT metabolized	–	Compound NOT metabolized	Compound NOT metabolized	–	Compound NOT metabolized	–	Compound NOT metabolized	–	Compound NOT metabolized	Compound NOT metabolized	Compound NOT metabolized	–
CC(=O)CC(c1ccccc1)c1c(O)c2ccccc2oc1=O (centres undefined) [WARFARIN]	Compound NOT metabolized	Compound NOT metabolized	Compound NOT metabolized	Compound NOT metabolized	Compound NOT metabolized	Compound NOT metabolized	–	Compound NOT metabolized	Compound NOT metabolized	Compound NOT metabolized	Compound NOT metabolized	Compound NOT metabolized	–	Compound NOT metabolized	Compound NOT metabolized	Compound NOT metabolized	Compound NOT metabolized	–	Compound NOT metabolized	Compound NOT metabolized

Second part, the compound after the results:

Bacterial Biotransformation [1]	Bacterial Biotransformation [2]	Bacterial Biotransformation [3]	Bacterial Biotransformation [4]	Bacterial Biotransformation [5]	Bacterial Biotransformation [6]	Bacterial Biotransformation [7]	Bacterial Biotransformation [8]	Bacterial Biotransformation [9]	Bacterial Biotransformation [10]	Bacterial Biotransformation [11]	Bacterial Biotransformation [12]	Bacterial Biotransformation [13]	Bacterial Biotransformation [14]	Bacterial Biotransformation [15]	Bacterial Biotransformation [16]	Bacterial Biotransformation [17]	Bacterial Biotransformation [18]	Bacterial Biotransformation [19]	Bacterial Biotransformation [20]	Structure (SMILES)
Compound NOT metabolized	Compound NOT metabolized	Compound NOT metabolized	Compound NOT metabolized	Compound NOT metabolized	Compound NOT metabolized	–	–	–	Compound NOT metabolized	Compound NOT metabolized	Compound NOT metabolized	–	Compound NOT metabolized	Compound NOT metabolized	Compound NOT metabolized	Compound NOT metabolized	Compound NOT metabolized	Compound NOT metabolized	Compound NOT metabolized	CCN(CC)CCCC(C)Nc1c2ccc(Cl)cc2nc2ccc(OC)cc12 (centres undefined) [QUINACRINE]
Compound NOT metabolized	Compound NOT metabolized	Compound NOT metabolized	Compound NOT metabolized	Compound NOT metabolized	Compound NOT metabolized	–	–	Compound NOT metabolized	Compound NOT metabolized	Compound NOT metabolized	Compound NOT metabolized	–	–	Compound NOT metabolized	Compound NOT metabolized	Compound NOT metabolized	Compound NOT metabolized	–	Compound NOT metabolized	CCCN(CCC)CCc1cccc2c1CC(=O)N2 [ROPINIROLE]
Compound NOT metabolized	Compound NOT metabolized	Compound NOT metabolized	Compound NOT metabolized	Compound NOT metabolized	Compound NOT metabolized	–	Compound NOT metabolized	Compound NOT metabolized	Compound NOT metabolized	Compound NOT metabolized	Compound NOT metabolized	Compound NOT metabolized	Compound NOT metabolized	Compound NOT metabolized	Compound NOT metabolized	Compound NOT metabolized	Compound NOT metabolized	Compound NOT metabolized	–	COc1cc(C(=O)NCc2ccc(OCCN(C)C)cc2)cc(OC)c1OC [TRIMETHOBENZAMIDE]
